Experimental findings from patent US10040788B2, “1,3,4-thiadiazole compounds and their use in treating cancer” (AstraZeneca AB, priority 2014, dated 2018) are described below.

For this test, the system named is NCI-H1703 cells. As to the kind of experiment: GLS Cell Proliferation Assay (NCI-H1703). Type of test: cell-based, human. The settings on record: Homo sapiens, 120 h; NCI-H1703 cells, 5 days incubation; geometric mean where repeated; read-out: Assay c) GLS Cell Proliferation Assay. The text has this:
The following assays were used to measure the effects of the compounds of the present invention: a) GLS Enzyme Potency Assay; b) GLS Cell Potency Assay; c) GLS Cell Proliferation Assay; and d) Mouse Xenograft Model. During the description of the assays, generally: • i. The following abbreviations have been used: CO2=Carbon dioxide; DMEM=Dulbecco's Modified Eagle Medium; DMSO=Dimethyl sulphoxide; EDTA=Ethylenediaminetetraacetic acid; EGTA=Ethylene glycol tetraacetic acid; FCS=Foetal calf serum; h=Hour(s); NBS=Non-binding surface; SDS=Sodium dodecyl sulphate; r.t.=room temperature; TRIS=Tris(Hydroxymethyl)aminomethane. • ii. […]
The ability of compounds to inhibit cell growth was measured using a 384 well plate NCI-H1703 cell proliferation assay. NCI-H1703 cells were grown in phenol red free RPMI1640, 10% FCS and 2 mM glutamine and seeded at a density of 750 cells per well in 40 μl of growth medium into clear-bottom 384 well assay plates (Corning product code 3712) and incubated for 24 h at 37° C., 5% CO2. […] DMSO concentration was maintained at 0.3% by back filling with DMSO solution. Plates were incubated for 5 days at 37° C., 5% CO2, Sytox Green and Saponin added to final concentration of 2 μM and 0.25% respectively and incubated for 6 h prior to analysis. Plates were read on an Acumen eX3 (TTP Labtech) using 488 nm excitation and FITC filter set (500-530 nm) for emission. IC50 values were calculated by curve fitting to max inhibition of day zero growth using GeneData software analysis.
`CO[C@H](C(=O)Nc1nnc(N[C@@H]2CCN(c3nccnn3)C2)s1)c1ccc(F)cc1` [17(a), (2S)-2-(4-fluorophenyl)-2-methoxy-N-[5-[[(3R)-1-(1,2,4-triazin-3-yl)pyrrolidin-3-yl]amino]-1,3,4-thiadiazol-2-yl]acetamide]: the IC50 amounted to 3570 nM. For the compound `CO[C@@H](C(=O)Nc1nnc(N[C@@H]2CCN(c3nccnn3)C2)s1)c1ccc(F)cc1` [17(b), (2R)-2-(4-fluorophenyl)-2-methoxy-N-[5-[[(3R)-1-(1,2,4-triazin-3-yl)pyrrolidin-3-yl]amino]-1,3,4-thiadiazol-2-yl]acetamide], the IC50 amounted to 120 nM. For `[2H]C([2H])([2H])O[C@H](C(=O)Nc1nnc(N[C@@H]2CCN(c3cccnn3)C2)s1)c1ccccc1` [18(a), (2S)-2-phenyl-N-[5-[[(3R)-1-pyridazin-3-ylpyrrolidin-3-yl]amino]-1,3,4-thiadiazol-2-yl]-2-(trideuteriomethoxy)acetamide] the value was 1.88 nM. For the compound `[2H]C([2H])([2H])O[C@@H](C(=O)Nc1nnc(N[C@@H]2CCN(c3cccnn3)C2)s1)c1ccccc1` [18(b), (2R)-2-phenyl-N-[5-[[(3R)-1-pyridazin-3-ylpyrrolidin-3-yl]amino]-1,3,4-thiadiazol-2-yl]-2-(trideuteriomethoxy)acetamide], the IC50 stood at 73 nM. As for `[2H]C([2H])([2H])O[C@]([2H])(C(=O)Nc1nnc(N[C@@H]2CCN(c3cccnn3)C2)s1)c1ccccc1` [20(a), (2S)-2-deuterio-2-phenyl-N-[5-[[(3R)-1-pyridazin-3-ylpyrrolidin-3-yl]amino]-1,3,4-thiadiazol-2-yl]-2-(trideuteriomethoxy)acetamide], the figure is 1.94 nM; as for `[2H]C([2H])([2H])O[C@@]([2H])(C(=O)Nc1nnc(N[C@@H]2CCN(c3cccnn3)C2)s1)c1ccccc1` [20(b), (2R)-2-deuterio-2-phenyl-N-[5-[[(3R)-1-pyridazin-3-ylpyrrolidin-3-yl]amino]-1,3,4-thiadiazol-2-yl]-2-(trideuteriomethoxy)acetamide], 166 nM; as for `CO[C@H](C(=O)Nc1nnc(N[C@@H]2CCN(c3cncnn3)C2)s1)c1cccc(OC(F)(F)F)c1` [22(a), (2S)-2-methoxy-N-[5-[[(3R)-1-(1,2,4-triazin-6-yl)pyrrolidin-3-yl]amino]-1,3,4-thiadiazol-2-yl]-2-[3-(trifluoromethoxy)phenyl]acetamide], 10.7 nM. For `CO[C@H](C(=O)Nc1nnc(N[C@@H]2CCN(c3cncnn3)C2)s1)c1cccc(OC(F)F)c1` [23(a), (2S)-2-[3-(difluoromethoxy)phenyl]-2-methoxy-N-[5-[[(3R)-1-(1,2,4-triazin-6-yl)pyrrolidin-3-yl]amino]-1,3,4-thiadiazol-2-yl]acetamide] the value was 4.63 nM; for `CO[C@@H](C(=O)Nc1nnc(N[C@@H]2CCN(c3cncnn3)C2)s1)c1cccc(OC(F)F)c1` [23(b), (2R)-2-[3-(difluoromethoxy)phenyl]-2-methoxy-N-[5-[[(3R)-1-(1,2,4-triazin-6-yl)pyrrolidin-3-yl]amino]-1,3,4-thiadiazol-2-yl]acetamide], 35.4 nM; for `COc1ccc([C@H](OC)C(=O)Nc2nnc(N[C@@H]3CCN(c4nccnn4)C3)s2)cc1OC` [26(a), (2S)-2-(3,4-dimethoxyphenyl)-2-methoxy-N-[5-[[(3R)-1-(1,2,4-triazin-3-yl)pyrrolidin-3-yl]amino]-1,3,4-thiadiazol-2-yl]acetamide], 2050 nM.

As for `COc1ccc([C@@H](OC)C(=O)Nc2nnc(N[C@@H]3CCN(c4nccnn4)C3)s2)cc1OC` [26(b), (2R)-2-(3,4-dimethoxyphenyl)-2-methoxy-N-[5-[[(3R)-1-(1,2,4-triazin-3-yl)pyrrolidin-3-yl]amino]-1,3,4-thiadiazol-2-yl]acetamide], the IC50 turned out to be 101 nM.

In the case of `CCO[C@H](C(=O)Nc1nnc(N[C@@H]2CCN(c3cccnn3)C2)s1)c1ccc(OC)cc1` [28(a), (2S)-2-ethoxy-2-(4-methoxyphenyl)-N-[5-[[(3R)-1-pyridazin-3-ylpyrrolidin-3-yl]amino]-1,3,4-thiadiazol-2-yl]acetamide], the IC50 worked out at 9.28 nM.
